Structures can show the parent of a compound that is named as a salt. Where two headings read alike, the source gives them in different places.
Columns and labels:
[1] = format: physicochemical; details: 0.04 mg/cm^2
Experimental: Mesh was cut into three pieces, each approximate 4 cm^2. Each piece was weighed and it was made sure each piece was 50 mg as the actual area was, ca, 50.0 mg/(10.7 mg/cm^2)=4.7 cm^2. Thiolene formula (60 mg) (thiolene formula contains 67.22 wt % Pentaerythritol tetrakis(3-mercaptopropionate), 32.73 wt % […] Isocyanurate, and 0.05 wt % Hydroquinone:tertbutyl cathetol (1:1 mixture by moles), density is, ca, 1.2 g/mL) was dissolved in acetone aiming for the concentration of 100 mg/mL. […] Made three specimens as shown Table 1. The solutions were transferred onto PP mesh using an automatic pipette while the meshes were held by a plastic clamp. […] The thiolene formula loading was set to 2.5 mg/cm^2 in this experiment. […] HPLC runs of each specimen extract from methanol were performed under the conditions below: • Channel A: 35 mM sodium phosphate monobasic, 1 vol % triethylamine, final pH=7.5 with phosphoric acid • Channel B: acetonitrile • Column temperature=30° C. • Column type: 3×150 mm with 3.5 μm phenyl phase packing • Measurement: absorbance at 280 nm • Solvent flow rate: 1 mL/min • Solvent profile: 0-10 minutes 0-50 vol % Channel B; 10-20 minutes 50 vol % Channel B; 20-25 minutes 50-0 vol % Channel B. The concentration of minocycline hydrochloride and rifampin in specimen 2 after curing were determined using direct proportions of peak area integration of specimen 3. • a. […]

[2] = format: physicochemical; details: 0.04 mg/cm^2; remark: listed apart in the source
Experimental: Three pieces, each approximate 4 cm^2, of polypropylene (PP) mesh (density d=107 g/m^2) were cut and weighed to make sure that each piece has same weight. The weight was 42.7 mg for each piece as the actual area was, ca, 42.7 mg/(10.7 mg/cm^2)=4 cm^2. Polyethylene glycol dimethacrylate (PEG DM) (60 mg) was weighed and dissolve the in acetone making the concentration as 100 mg/mL. PTPO (4.5 mg) was weighed and dissolve in acetone making the concentration as 10 mg/mL. 5 μL of PTPO solution (containing 50 ug PTPO) in step and 100 μL of PEG DM solution (containing 10 mg of PEG DM formula, described above) were mixed in a 1.5 mL centrifuge tube so that the PTPO to PEG DM weight ratio was 0.5%. Took preweighed 157 μg of minocycline and 157 μg of rifampin, so that the drug loading was about 0.04 mg/cm^2 in this experiment for each drug. The solutions were transferred onto PP mesh using an automatic pipette while the meshes were held by a plastic clamp. Specimen 4 and 5 were subjected to curing while specimen 6 was chosen as a reference. The thiolene formula loading was 2.5 mg/cm^2 in this experiment. […]
Using direct proportions of peak integration of specimen 6, the concentration of minocycline hydrochloride and rifampin in specimen 5 after curing was determined. […] The antibiotics remaining after curing were calculated as: {(Peak integration of specimen 5)/(peak integration of specimen 6)}×100%

[3] = format: physicochemical; details: 0.4 mg/cm^2
Experimental: Three 35.3 mg, 3.24 cm^2 pieces of polypropylene mesh were cut. About 80 mg thiolene formula (67.22 wt % pentaerythritol tetrakis(3-mercaptopropionate), 32.73 wt % triallyl isocyanurate, and 0.05 wt % hydroquinone:tertbutyl cathetol (1:1 mixture by moles), density is, ca, 1.2 g/mL) was weighed and dissolve the formula in acetone aiming for the concentration of 200 mg/mL. Weighed about 2 mg PTPO and dissolved it in acetone aiming for the concentration of 10 mg/mL. Took 8.1 μL of solution of PTPO (which contained 81 ug PTPO) and 81 μL of the thiolene solution (which contained 16.2 mg of thiolene formula) and mixed them in a 1.5 mL centrifuge tube, so that the PTPO to monomer weight ratio was 0.005. The thiolene formula to PP mesh ratio was 5 mg/cm^2. Drugs were dissolved in methanol and drug/methanol solutions were mixed with monomer/acetone solutions such that solvent ratios were at 2:1 acetone:methanol for drug containing specimens (Table 8). Those specimens not containing drug used pure acetone solvents in the coating formulation. […]
The concentration of minocycline hydrochloride and rifampin in specimen 8 was determined using direct proportions of peak area integrations and taking of […] as 100% drug control. […] The antibiotics remaining after curing was calculated as: {(Peak integration of specimen 8)/(peak integration of specimen 9)}×100%

[4] = Antibiotics remaining after curing, pentaerythritol tetrakis(3-mercaptopropionate)/PEG DM thiolene coating (EXP12-formula) with PTPO, HPLC peak integration (Example 12); format: physicochemical; details: specimen 11 vs specimen 9, 0.4 mg/cm^2 each drug, curing time 10 mins
Experimental: All procedures were same as Example 11 except that the thiolene formula was replaced by the following formula (10 g of pentaerythritol tetrakis(3-mercaptopropionate) (from Sigma Aldrich, P #381462, lot #80896TMV) and 21.4 g of polyethylene glycol dimethacrylate (from Sigma Aldrich, P #409510, lot # MKBP0253V) (EXP12-formula). The curing time was set to 10 mins. The two specimens used in curing are shown in the following Table 11. Specimen 9 as discussed in Example 11 was used as a standard.
The top is specimen 9 and the bottom is the cured specimen 11 with drug loading.

[5] = Antibiotics remaining after curing, EXP12-formula coating with Irgacure 2959, HPLC peak integration (Example 13); format: physicochemical; details: cured specimen with drug vs specimen 9, Irgacure 2959, UV-C chamber, curing time 10 mins
Experimental: All procedures are same as Example 12 except the PTPO is replaced by Irgacure 2959. The curing time was set to 10 mins. The UV source was Ariste UV-C chamber. […]

[6] = Drug survival during polymerization and post cure loading, BPDM/NTG-GMA methacrylate coating on DualMesh ePTFE, HPLC of methanol extracts (Example 4); format: physicochemical; details: drugs in casting solution, theoretical 400 μg/cm^2 each drug, methanol extract
From the text: An acetone:ethanol:BPDM solution:NTG-GMA solution in 1:1:1:1 volume ratio was used to coat DualMesh Biomaterial with drugs both present during the polymerization process and loaded into the polymer network after curing had been performed. Circular 0.785 cm^2 samples of DualMesh were coated. In the version were drugs were included in the casting solution, both minocycline hydrochloride and rifampin were incorporated at levels such if no degradation were to have occurred each drug would have been loaded at a bulk surface area density of 400 μg/cm^2. The post-cure loaded version was created by coating the DualMesh with the same amount of polymer coating, and then submerging the specimen in a 5 mL methanol bath containing each drug at 10 mg/mL overnight (˜18 hours) at 4° C. After soaking in the methanol/drug solution, specimens were retrieved from the loading solution and allowed to air dry. Once dried they were passed through two rinse solutions using the following technique: forceps were used to hold specimens while contacting a minimal amount of the surface, vigorously shake the specimen in a 15 mL methanol rinse for 15 seconds, move specimen to a second 15 mL methanol bath and vigorously shake for an additional 15 seconds, and finally allow to air dry. Shaking was performed by moving the forceps back while holding the specimen submerged in the rinse. […]

[7] = Drug destruction on curing, thiolene coating with PTPO on polypropylene mesh, HPLC of methanol extracts (Example 6); format: physicochemical; details: 0.1 wt % PTPO, halogen dental curing lamp, six coats, theoretical 0.2 mg/cm^2 each drug
Experimental: 1:1:8 weight ratio of monomer (67.22 wt % pentaerythritol tetrakis(3-mercaptopropionate), 32.73 wt % triallyl isocyanurate, and 0.05 wt % hydroquinone:tertbutyl cathetol (1:1 mixture by mole)):methanol:acetone containing minocycline hydrocholoride and rifampin at 50 mg/mL of each drug blend was made. PTPO (BASF P/N 56415733) was added at 0.1 wt %. Polymerization was induced using a halogen dental curing lamp through curing at a distance 2″ from the light guide for 10 seconds on each side of the mesh. Six coats were applied to result in a theoretical loading of 0.2 mg/cm^2 of each drug. HPLC analysis of methanol extracts indicated 72% and 69% destruction of minocycline hydrochloride and rifampin, respectively. High degradation rates may be the result of the phosphine oxide initiator, which could destroy these drugs upon activation.

Row | Remaining after curing [1] | Remaining after curing [2] | Remaining after curing [3] | Remaining after curing [4] | Remaining after curing [5] | destruction of drug [7] | SMILES | average drug survival during the polymerization process [6]
1 | 88% | 76% | 64% | 54% | 85% | – | CN(C)c1ccc(O)c2c1C[C@H]1C[C@H]3[C@H](N(C)C)C(O)=C(C(N)=O)C(=O)[C@@]3(O)C(O)=C1C2=O [Minocycline, minocycline hydrochloride] | –
2 | 87% | 97% | 61% | 58% | 85% | 69% | CO[C@H]1/C=C/O[C@@]2(C)Oc3c(C)c(O)c4c(O)c(c(/C=N/N5CCN(C)CC5)c(O)c4c3C2=O)NC(=O)/C(C)=C\C=C\[C@H](C)[C@H](O)[C@@H](C)[C@@H](O)[C@@H](C)[C@H](OC(C)=O)[C@@H]1C [Rifampin, rifampin] | 79%
